# Where two headings read alike, the source gives them in different places.
# Columns and labels:
# cyclin D1 [1] = assay: Cyclin D1 level and degradation (co-treatment, CHX chase); type: cell-based; conditions: HCT116, 6 hours; MG132 1 μM, CB-5083 2 μM, Baf A1 10 μM
# Procedure: FIGS. 12A-12C depicts Western blots detecting the effects of p97 inhibitors and MG132 on cell cycle proteins in HT29 and HCT116 cells. […] Then, 50 μM of CHX was added and cells were collected at 0 h, 0.5 h, and 1 h. FIG. 12C depicts half-life of cyclin D1 in HCT116 cells. HCT116 cells were pre-treated with 5 μM of CB-5083 or DMSO for 30 minutes before adding 50 μM of CHX, and cells were collected at 0, 10, 20, 30 min (n=3), * indicates p<0.05 according to unpaired t-test.
# (§1) The concentration of MG132, CB-5083 and Baf A1 was 1 μM, 2 μM and 10 μM, respectively. […] FIGS. 13D-13E depict the half-life of Securin in HCT116 cells. HCT116 cells were treated with 1 μM of MG132, 2 μM of CB-5083, 1 μM of MG132 plus 2 μM of CB-5083 or DMSO. […] Cells were pretreated with […] for 1 h. […] For FIGS. 13B-13G, D, B, M, C and N represents DMSO, Baf A1, MG132, CB-5083 and NMS-873, respectively. Data are shown as mean±SD. Statistical analysis was performed using one-way ANOVA.
# Cells were co-treated with CB-5083 and either the proteasome inhibitor MG132 or the autophagy inhibitor Bafilomycin A1 (Baf A1).
# HCT116 cells [2] = assay: Temporal label-free (LFQ) proteomics of HCT116 cells treated with p97 inhibitors; type: cell-based; conditions: 4 μM UPCDC-30245, 2 μM CB-5083, 4 μM NMS-873
# Procedure: This percentage was calculated by dividing the number of overlapping proteins by the sum of all DE proteins identified by p97 KD and/or inhibitor treatment. HCT116 cells were treated with 4 μM UPCDC-30245, 2 μM CB-5083 or 4 μM of NMS-874 for the indicated time points, n=2.
# To explore the temporal proteomic profiles of p97 inhibition, HCT116 cells were treated with DMSO, and p97 inhibitors (CB-5083, NMS-873 or UPCDC-30245) for 2 h, 6 h, 10 h, 18 h, or 24 h in duplicate. […] To compare the proteomic profile of p97 shRNA KD to that of different p97 inhibitors, DE proteins identified through p97 KD were compared with those identified under different inhibitor treatments (p<0.05) at each time point. […] To reveal the cellular effects common to both p97 KD and p97 inhibitors, overlapping DE proteins across different timepoints for each inhibitor treatment were combined.
# Securin [3] = assay: Securin degradation (CHX chase) in HCT116 cells; type: cell-based; conditions: HCT116, pretreated with MG132 for 1 h, then 2 μM CB-5083 with 50 μM CHX
# Procedure: as §1
# HCT116 tumor cells = conditions: mouse xenograft models implanted with HCT116 tumor cells, ref [22]; cited from earlier work
# HCT116 cells [4] = assay: Cell cycle analysis (DNA content); type: cell-based; conditions: HCT116, 24 h
# Procedure: FIG. 7A depicts cell cycle analysis of HCT116 cells after 24 h of treatments with DMSO, 1 μM of MG132 (MG) or 2 μM of CB-5083. […] Data were from TMT labeling proteomics. M, C and N indicates MG132, CB-5083 and NMS-873 treatment, respectively. […] HCT116 cells were treated for 24 h with DMSO, 1 μM of MG132 (MG), 2 μM of CB-5083 (CB) or 4 μM of NMS-873 (NMS), n=3.
# [5] = test system: cancer cell proliferation; conditions: ref [22]; cited from earlier work
# Securin [6] = conditions: HT29, pretreated with MG132 for 1 h, then 2 μM CB-5083 with 50 μM CHX
# Procedure: as §1
# HCT116 cells [7] = conditions: HCT116, 6 h treatment, 2 μM CB-5083
# Procedure: as §1
# HCT116 cells [8] = assay: TMT labeling proteomics of HCT116 cells treated with MG132, CB-5083 or NMS-873; type: cell-based; conditions: for Log2 FC Baculoviral IAP repeat-containing protein 5 (BIRC5) / Log2 FC Cell division cycle protein 20 homolog (CDC20) / Log2 FC F-box only protein 5 (FBXO5) / Log2 FC G1/S-specific cyclin-D1 (CCND1) / Log2 FC Geminin (GMNN) / Log2 FC M-phase inducer phosphatase 2 (CDC25B) / Log2 FC Mitotic checkpoint serine/threonine-protein kinase BUB1 (BUB1) / Log2 FC Myc proto-oncogene protein (MYC) / Log2 FC Origin recognition complex subunit 6 (ORC6) / Log2 FC Ribonucleoside-diphosphate reductase subunit M2 (RRM2) / Log2 FC Securin (PTTG1): compound vs DMSO; for Four XBP1 activated genes/proteins (DNAJB11, SRPR, SRPRB, SYVN1), Log2FC: HCT116, 24 h of treatment, p<0.05
# Procedure: HCT116 cells were treated with 1 μM MG132, 2 μM CB-5083 or 4 μM of NMS-874 for 6 h or 24 h, n=2. […] M, C and N represents MG132, CB-5083 and NMS-873, respectively.
# As a step toward understanding the differential effects of inhibiting p97 and the proteasome in cancer treatment, the effect of inhibiting p97 was compared to proteasome inhibition using tandem mass tag (TMT) 16-plexed labelling. This technique allowed for capture of alterations in the proteome after exposure to MG132 (proteasome inhibitor) and p97 inhibitors (CB-5083 and NMS-873). […] Samples were pooled together, fractionated into 8 fractions using high pH reverse chromatography, and analyzed using the highly accurate RTS-SPS-MS3 method.
# cyclin D1 [9] = conditions: Parisi et al. [71]; cited from earlier work
SMILES,UPR proteins and those linked to protein processing in the ER (HCT116 cells [2]),"Log2 FC Baculoviral IAP repeat-containing protein 5 (BIRC5) (HCT116 cells [8]; HCT116, 6 h treatment)","Log2 FC Cell division cycle protein 20 homolog (CDC20) (HCT116 cells [8]; HCT116, 6 h treatment)","Log2 FC F-box only protein 5 (FBXO5) (HCT116 cells [8]; HCT116, 6 h treatment)","Log2 FC G1/S-specific cyclin-D1 (CCND1) (HCT116 cells [8]; HCT116, 6 h treatment)","Log2 FC Geminin (GMNN) (HCT116 cells [8]; HCT116, 6 h treatment)","Log2 FC M-phase inducer phosphatase 2 (CDC25B) (HCT116 cells [8]; HCT116, 6 h treatment)","Log2 FC Mitotic checkpoint serine/threonine-protein kinase BUB1 (BUB1) (HCT116 cells [8]; HCT116, 6 h treatment)","Log2 FC Myc proto-oncogene protein (MYC) (HCT116 cells [8]; HCT116, 6 h treatment)","Log2 FC Origin recognition complex subunit 6 (ORC6) (HCT116 cells [8]; HCT116, 6 h treatment)","Log2 FC Ribonucleoside-diphosphate reductase subunit M2 (RRM2) (HCT116 cells [8]; HCT116, 6 h treatment)","Log2 FC Securin (PTTG1) (HCT116 cells [8]; HCT116, 6 h treatment)","Four XBP1 activated genes/proteins (DNAJB11, SRPR, SRPRB, SYVN1), Log2FC (HCT116 cells [8])","Log2 FC Baculoviral IAP repeat-containing protein 5 (BIRC5) (HCT116 cells [8]; HCT116, 24 h treatment)","Log2 FC Cell division cycle protein 20 homolog (CDC20) (HCT116 cells [8]; HCT116, 24 h treatment)","Log2 FC F-box only protein 5 (FBXO5) (HCT116 cells [8]; HCT116, 24 h treatment)","Log2 FC G1/S-specific cyclin-D1 (CCND1) (HCT116 cells [8]; HCT116, 24 h treatment)","Log2 FC Geminin (GMNN) (HCT116 cells [8]; HCT116, 24 h treatment)","Log2 FC M-phase inducer phosphatase 2 (CDC25B) (HCT116 cells [8]; HCT116, 24 h treatment)","Log2 FC Mitotic checkpoint serine/threonine-protein kinase BUB1 (BUB1) (HCT116 cells [8]; HCT116, 24 h treatment)",also measured
"CO/C1=C\C(C)=C\[C@@H](C)[C@@H](O)[C@@H](C)C/C(C)=C/C=C/[C@H](OC)[C@@H]([C@@H](C)[C@@H](O)[C@H](C)[C@@]2(O)C[C@@H](O)[C@H](C)[C@@H](C(C)C)O2)OC1=O [Baf A1, Bafilomycin A1]",–,–,–,–,–,–,–,–,–,–,–,–,–,–,–,–,–,–,–,–,Effect on CB-5083 mediated cyclin D1 downregulation (co-treatment) (cyclin D1 [1]): no effect on cyclin D1 levels
Cc1cc2c(C(N)=O)cccc2n1-c1nc2c(c(NCc3ccccc3)n1)COCC2 [CB-5083],upregulated,−0.5,−0.4,−0.8,−1.4,−0.4,−1.1,−0.3,−0.5,−0.4,−0.2,−0.9,significantly upregulated,−0.8,−1.5,−1.0,−2.0,−1.1,−1.6,−1.1,"Degradation of Securin after MG132 pretreatment (Securin [3]): slightly accelerated the degradation of Securin; Tumor growth (HCT116 tumor cells): efficacious in inhibiting tumor growth; Potency in reducing G0/G1 and increasing G2/M distribution compared to MG132 (HCT116 cells [4]): less potent; Distribution of cells in the G0/G1 phase (HCT116 cells [4]; 1 μM MG132, 2 μM CB-5083): reduced distribution in the G0/G1 phase; Cancer cell proliferation [5]: strongly inhibited cancer cell proliferation; Degradation of Securin after MG132 pretreatment (Securin [6]): slightly accelerated the degradation of Securin; RNA level of CDC20 (HCT116 cells [7]): downregulated; Log2 FC Myc proto-oncogene protein (MYC) (HCT116 cells [8]; HCT116, 24 h treatment): −0.7; Log2 FC Origin recognition complex subunit 6 (ORC6) (HCT116 cells [8]; HCT116, 24 h treatment): −0.3; Log2 FC Ribonucleoside-diphosphate reductase subunit M2 (RRM2) (HCT116 cells [8]; HCT116, 24 h treatment): −1.1; Log2 FC Securin (PTTG1) (HCT116 cells [8]; HCT116, 24 h treatment): −1.9"
"c1ccc(CNc2nc(NCc3ccccc3)c3ccccc3n2)cc1 [DBeQ, N^2,N^4-Bis(phenylmethyl)-2,4-quinazolinediamine]",–,–,–,–,–,–,–,–,–,–,–,–,–,–,–,–,–,–,–,–,Cyclin D1 degradation (cyclin D1 [9]): promotes cyclin D1 degradation
"Cc1cc(OCc2nnc(SC3CCCC3)n2-c2cccnc2)ccc1-c1ccc(S(C)(=O)=O)cc1 [NMS-873, 3-[3-cyclopentylsulfanyl-5-[[3-methyl-4-(4-methylsulfonylphenyl)phenoxy]methyl]-1,2,4-triazol-4-yl]pyridine]",upregulated,−0.5,−0.6,−1.1,−1.8,−0.6,−1.6,−0.4,−1.1,−0.5,−0.3,−1.2,significantly upregulated,−2.0,−2.8,−2.4,−3.2,−1.8,−2.2,−2.1,"Log2 FC Myc proto-oncogene protein (MYC) (HCT116 cells [8]; HCT116, 24 h treatment): −1.1; Log2 FC Origin recognition complex subunit 6 (ORC6) (HCT116 cells [8]; HCT116, 24 h treatment): −0.6; Log2 FC Ribonucleoside-diphosphate reductase subunit M2 (RRM2) (HCT116 cells [8]; HCT116, 24 h treatment): −2.7; Log2 FC Securin (PTTG1) (HCT116 cells [8]; HCT116, 24 h treatment): −2.9"
"CC(C)N1CCN(CCNC2CCN(c3cccc(-c4cc5cc(F)ccc5[nH]4)c3)CC2)CC1 [UPCDC-30245, 1-(3-(5-Fluoro-1H-indol-2-yl)phenyl)-N-(2-(4-isopropylpiperazin-1-yl)ethyl)piperidin-4-amine]",not,–,–,–,–,–,–,–,–,–,–,–,–,–,–,–,–,–,–,–,–
